Reference: patent US8691811B2, “Quinazolinone linked pyrrolo[2,1-c][1,4]benzodiazepine hybrids as potential anticancer agents and process for the preparation thereof” (Council of Scientific & Industrial Research, priority 2008, dated 2014)

Legend:
[1] = tested on: eleven human tumour cell lines; assay: Tata protocol in vitro cytotoxicity (SRB, 48 h), all cell lines; format: cell-based; details: bound over all eleven cell lines, read-out: GI50 value against eleven cell lines in seven cell panels
Protocol: (§1) The C8-linked quinazolinone-PBD hybrids (5b, 5c, 5k, 5l, 5m) have been tested against eleven human tumour cell lines derived from seven cancer types (lung cancer, colon cancer, cervix, ovarian cancer, oral cancer, prostate cancer and breast cancer) as per Tata protocol. For each compound, dose response curves for individual cell lines have been measured at a minimum of five concentrations at 10 fold dilutions. A protocol of 48 h continuous drug exposure has been used, and a sulforhodamine B (SRB) protein assay was used to estimate cell viability or growth. Compounds 5b, 5c, 5k, 5l, 5m have been evaluated for their in vitro cytotoxicity in eleven cell lines from seven human cancer types of lung (Hop-62, A-549) colon (COLO-205) cervix (Si-Ha), ovary (A-2780), prostate (PC3) breast (MCF7, Zr-75-1), oral (DWD, GURAV, KB). The results are expressed as percent of cell growth determined relative to that of untreated control cells (Table-4).

HOP-62 = assay: Tata protocol cytotoxicity (SRB, 48 h), HOP-62; format: cell-based, human; details: HOP-62, lung
Protocol: as §1

A-549 = assay: Tata protocol cytotoxicity (SRB, 48 h), A-549; format: cell-based, human
Protocol: as §1

DWD = assay: Tata protocol cytotoxicity (SRB, 48 h), DWD; format: cell-based, human; details: oral
Protocol: as §1

GURAV = assay: Tata protocol cytotoxicity (SRB, 48 h), GURAV; format: cell-based, human; details: oral
Protocol: as §1

KB = assay: Tata protocol cytotoxicity (SRB, 48 h), KB; format: cell-based, human; details: oral
Protocol: as §1

A-2780 = assay: Tata protocol cytotoxicity (SRB, 48 h), A-2780; format: cell-based, human
Protocol: as §1

PC-3 = assay: Tata protocol cytotoxicity (SRB, 48 h), PC-3; format: cell-based, human; details: PC-3, prostate
Protocol: as §1

Si-Ha = assay: Tata protocol cytotoxicity (SRB, 48 h), Si-Ha; format: cell-based, human; details: cervix
Protocol: as §1

Colo-205 = assay: Tata protocol cytotoxicity (SRB, 48 h), Colo-205; format: cell-based, human; details: Colo-205, colon
Protocol: as §1

Zr-75-1 = assay: Tata protocol cytotoxicity (SRB, 48 h), Zr-75-1; format: cell-based, human; details: Zr-75-1, breast
Protocol: as §1

MCF7 = assay: Tata protocol cytotoxicity (SRB, 48 h), MCF7; format: cell-based, human; details: MCF7, breast
Protocol: as §1

[2] = tested on: lung cancer cell lines (Hop-62, A-549); assay: Tata protocol cytotoxicity (SRB, 48 h), lung panel; format: cell-based; details: Homo sapiens; range over the panel; exposure period of at least 48 hrs; read-out: GI50, in vitro activity against lung
Protocol: as §1

[3] = tested on: colon cancer cell line (COLO-205); assay: Tata protocol cytotoxicity (SRB, 48 h), colon panel; format: cell-based; details: Homo sapiens, exposure period of at least 48 hrs, read-out: GI50, in vitro activity against colon
Protocol: as §1

[4] = tested on: ovarian cancer cell line (A-2780); assay: Tata protocol cytotoxicity (SRB, 48 h), ovarian panel; format: cell-based; details: Homo sapiens, A2780; exposure period of at least 48 hrs; read-out: GI50, in vitro activity against ovarian
Protocol: as §1

[5] = tested on: prostate cancer cell line (PC3); assay: Tata protocol cytotoxicity (SRB, 48 h), prostate panel; format: cell-based; details: Homo sapiens; exposure period of at least 48 hrs; read-out: GI50, in vitro activity against prostate
Protocol: as §1

[6] = tested on: breast cancer cell lines (MCF7, Zr-75-1); assay: Tata protocol cytotoxicity (SRB, 48 h), breast panel; format: cell-based; details: Homo sapiens; range over the panel; exposure period of at least 48 hrs; read-out: IC50, in vitro activity against breast
Protocol: as §1

[7] = tested on: duplex-form calf thymus DNA (CT-DNA); assay: Thermal denaturation studies with calf thymus DNA; format: binding; details: [PBD]:[DNA] molar ratio 1:5, CT-DNA 100 μM, ligand 20 μM, pH 7.00
Protocol: Compounds have been subjected to thermal denaturation studies with duplex-form calf thymus DNA (CT-DNA) using a modification of a reported procedure. Working solutions in aqueous buffer ([…] NaH2PO4/Na2HPO4, 1 mM Na2EDTA, pH 7.00+0.01). containing CT-DNA (100 μm in phosphate) and the PBD (20 μm) have been prepared by addition of concentrated PBD solutions in DMSO to obtain a fixed [PBD]/[DNA] molar ratio of 1:5. The DNA-PBD solutions have been incubated at 37° C. for 0 and 18 hrs prior to analysis. Samples have been monitored at 260 nm using a Beckman DU-800 spectrophotometer fitted with high performance temperature controller, and heated at 1° C. min^−1 in the 40-110° C. range. DNA helix→coil transition temperatures (Tm) have been obtained from the maxima in the d(A260)/dT derivative plots. Drug-induced alterations in DNA melting behavior are given by: ΔTm=Tm(DNA+PBD)−Tm(DNA alone), where the Tm value for the PBD-free CT-DNA is 68.5±0.01.
The DNA-binding for these novel C8-linked quinazolinone-PBD hybrids has been examined by thermal denaturation studies using calf thymus (CT) DNA. […] Data for 5b, 5c, 5d, and 5k, 5l, 5m and DC-81 are included in Table 5 for comparison.

Row | SMILES | ΔTm after incubation at 37° C. for 0 h [7] [°C] | ΔTm after incubation at 37° C. for 18 h [7] [°C] | GI50 (HOP-62) [µM] | GI50 (A-549; A-549, lung) [µM] | GI50 (DWD) [µM] | GI50 (GURAV) [µM] | GI50 (KB) [µM] | GI50 (A-2780; A-2780, ovary) [µM] | GI50 (PC-3) [µM] | GI50 (Si-Ha) [µM] | GI50 (Colo-205) [µM] | GI50 (Zr-75-1) [µM] | GI50 (MCF7) [µM] | other results
1 | COc1cc2c(cc1OCCCOc1ccc(-n3c(C)nc4ccccc4c3=O)cc1)N=C[C@@H]1CCCN1C2=O [5b, 7-methoxy-8{-3-[4-(2-methyl-4-oxo-3,4-dihydro-3-quinazolinyl)phenoxy]propoxy}-(11aS)-1,2,3,11a-tetrahydro-5H-pyrrolo[2,1-c][1,4]benzodiazepine-5-one] | 1.0 | 2.0 | – | – | – | – | – | – | – | – | – | – | – | GI50 [1]: < 1.83 µM; GI50 (HOP-62; Homo sapiens): 0.16 µM; GI50 (A-549; Homo sapiens, A549, A-549, lung): 1.48 µM; GI50 (DWD; Homo sapiens): 0.11 µM; GI50 (GURAV; Homo sapiens): 0.13 µM; GI50 (KB; Homo sapiens): 0.15 µM; GI50 (A-2780; Homo sapiens, A2780, A-2780, ovary): 0.1 µM; GI50 (PC-3; Homo sapiens): 0.13 µM; GI50 (Si-Ha; Homo sapiens, SiHa): 0.16 µM; GI50 (Colo-205; Homo sapiens): 0.14 µM; GI50 (Zr-75-1; Homo sapiens): 0.16 µM; GI50 (MCF7; Homo sapiens): 1.83 µM; GI50 [2]: 0.16 to 1.48 µM; GI50 [3]: 0.14 µM; GI50 [4]: 0.1 µM; GI50 [5]: 0.13 µM; IC50 [6]: 0.16 to 1.83 µM
2 | COc1cc2c(cc1OCCCCOc1ccc(-n3c(C)nc4ccccc4c3=O)cc1)N=C[C@@H]1CCCN1C2=O [5c, 7-methoxy-8{-4-[4-(2-methyl-4-oxo-3,4-dihydro-3-quinazolinyl)phenoxy]butoxy-}-(11aS)-1,2,3,11a-tetrahydro-5H-pyrrolo[2,1-c][1,4]benzodiazepine-5-one] | 1.0 | 2.1 | 1.95 | 1.93 | 1.6 | 1.95 | 1.98 | 0.16 | 0.17 | 1.91 | 1.81 | 1.97 | 2.3 | –
3 | COc1cc2c(cc1OCCCOc1ccc(-n3c(/C=C/c4ccccc4)nc4ccccc4c3=O)cc1)N=C[C@@H]1CCCN1C2=O [5k, 7-methoxy-8-{3-[(4-4-oxo-2-[(E)-2-phenyl-1-ethenyl]-3,4-dihydro-3-quinazolinylphenyl)oxy]propoxy}-(11aS)-1,2,3,11a-tetrahydro-5H-pyrrolo[2,1-c][1,4]benzodiazepine-5-one] | 1.0 | 2.0 | 2.15 | 1.88 | 0.14 | 1.85 | 1.78 | 0.14 | 0.16 | 2 | 2.12 | 0.17 | 2.03 | –
4 | COc1cc2c(cc1OCCCCOc1ccc(-n3c(/C=C/c4ccccc4)nc4ccccc4c3=O)cc1)N=C[C@@H]1CCCN1C2=O [5l, 7-methoxy-8-{4-[(4-4-oxo-2-[(E)-2-phenyl-1-ethenyl]-3,4-dihydro-3-quinazolinylphenyl)oxy]butoxy}-(11aS)-1,2,3,11a-tetrahydro-5H-pyrrolo[2,1-c][1,4]benzodiazepine-5-one] | 1.2 | 2.3 | 2.33 | 2.39 | 0.16 | 1.93 | 2.07 | 0.16 | 1.91 | 2.19 | 2.23 | 2.44 | – | –
5 | COc1cc2c(cc1OCCCCCOc1ccc(-n3c(/C=C/c4ccccc4)nc4ccccc4c3=O)cc1)N=C[C@@H]1CCCN1C2=O [5m, 7-methoxy-8-{5-[(4-4-oxo-2-[(E)-2-phenyl-1-ethenyl]-3,4-dihydro-3-quinazolinylphenyl)oxy]pentyloxy}-(11aS)-1,2,3,11a-tetrahydro-5H-pyrrolo[2,1-c][1,4]benzodiazepine-5-one] | 1.1 | 2.1 | 2.31 | 2.62 | 0.17 | 1.82 | 2.15 | 0.15 | 1.83 | 2.08 | 2 | 2.09 | 2.5 | –
6 | COc1cc2c(cc1O)N=CC1CCCN1C2=O (stereo not drawn) [DC-81, reference compound] | 0.3 | 0.7 | – | – | – | – | – | – | – | – | – | – | – | –
